US20060183802A1, “Compositions and methods for treating amyotrophic lateral sclerosis (ALS)” (priority 2004, published 2006)
Converted amounts (≈) assume the structure as drawn.

How the values were obtained:
[1] = tested on: SOD (wild type and A4V, G85R and G37R mutants); experiment: Copper/H2O2-induced oxidative aggregation of demetallated SOD after Cys-111 modification, monitored by light scattering; type: biochemical, human
Description: Unmodified SOD aggregation. SOD aggregation of SOD with an umodified Cys-111 residue was achieved by mixing 10 μM SOD with 0.8 mM copper sulfate (CuSO4) and 10 mM hydrogen peroxide (H2O2) in 20 mM Tris at 37° C. (pH 7.4). SOD aggregation of SOD modified at the Cys-111 residue.
Modified (Blocked […] Residue) aggregation. Treatment with iodoacetate and DTNB was carried out at 0.73 mg/ml demetallated SOD, 20 mM Tris, 20 mM phosphate with 10 mM modifying reagent in each at pH 7.4 and room temperature for one hour. In the case of DTNB treatment, both protein solution and the buffer were nitrogen fused prior to the reaction. Modified SOD samples were then dialyzed against 20 mM Tris buffer at pH 7.8 in room temperature. All of the modified SOD samples were prepared fresh just before inducing oxidation with copper (0.8 mM) and hydrogen peroxide (10 mM).
Kinetic Studies of modified and unmodified SOD aggregation. To monitor the kinetics of aggregation, the SOD solution was equilibrated in a quartz cuvette at 37° C. for 5 min within the sample chamber of a Hitachi F-4500 fluorimeter, at which point a freshly made solution containing the CuSO4, H2O2, and Tris was added. Using a small stir bar, the solution was mixed for 5 s, and the light scattered at a 90° angle was immediately monitored for 1 h at an excitation and emission wavelengths of 350 with 2.5 nm slit width. […]

SOD = experiment: In vitro oxidative aggregation of SOD in presence of orotate; type: biochemical, human
Text: The scope of the current study that led to the discovery of anti-aggregation effect of orotate was based the inventor's aggregation model involving the open dimers (FIG. 9) as discussed in Example 2.

[2] = according to MSDS; cited from earlier work
[3] = tested on: Cu/Zn superoxide dismutase; details: rat liver, dietary administration; cited from earlier work
mouse models = details: dietary administration; cited from earlier work
cardiomyopathic hamsters = details: dietary administration; cited from earlier work

## O=C(O)c1cc(SSc2ccc([N+](=O)[O-])c(C(=O)O)c2)ccc1[N+](=O)[O-] [DTNB, dithionitro benzoic acid]
[1]; 10 mM modifying reagent, pH 7.4, one hour, then 0.8 mM copper, 10 mM H2O2, WT, A4V, G85R, G37R apo SOD
  aggregation of SOD after treatment with sulfhydryl blocking reagent: inhibited

## O=C(O)CI [iodoacetate]
[1]; pH 7.4
  aggregation of SOD after treatment with sulfhydryl blocking reagent: inhibited

## O=C(O)c1cc(=O)[nH]c(=O)[nH]1 [orotic acid]
SOD; different variants of SOD with different extent of dimer opening
  anti-aggregation activity across SOD variants: different level of anti-aggregation activity in different variants of SOD
SOD; in vitro oxidative aggregation
  effect on in vitro oxidative aggregation of SOD: inhibition of in vitro oxidative aggregation
[2]
  solubility in water: 7 mM (≈ 1090 µg/mL)
[3]
  Cu/Zn superoxide dismutase mRNA level: reduction
  SOD activity: corresponding reduction
Mouse models
  memory and synaptic long-term potentiation: improve memory and synaptic long-term potentiation
Cardiomyopathic hamsters
  conditions of cardiomyopathic hamsters: improve
